In patent US10548829B2, “Oral care compositions and methods of use” (priority 2016, dated 2020):

System: HaCaT cells
Assay: Scratch assay, cell migration/proliferation "wound healing"
Format: cell-based, human
Settings: 0.1 mM in 1% DMSO complete media
Protocol: Cell Culture: Spontaneously immortalized human keratinocyte line, HaCaT cells (AddexBio, San Diego, Calif., cat # T0020001) were cultured in 25 cm^2 vented, Falcon canted tissue culture flasks (VWR, Radnor, Pa., cat #353108) using complete DMEM media (Life Technologies, Grand Island, N.Y., cat #11965-092) supplemented with 10% characterized Hyclone FBS (VWR, Radnor, Pa., cat #1677-014) and 1× Penicillin—Streptomycin (Life Technologies, Grand Island, N.Y., cat #15140122). The cultures were incubated at 37° C. and 5% CO2 until the cells reached around 70-80% confluence. […]
Assay sample preparation: Samples were prepared in a final concentration of 1% DMSO in complete media. […] Two different batches of product 5 were tested at 0.15 mM, the average % Growth Relative to day 0 (d0) was determined and presented in FIG. 20. […]
Quantifying cell migration/wound healing: To explore the effects of various actives on cell migration/wound healing, the size of the freshly generated wound (the gap size) was determined following treatment using an inverted microscope (Olympus 1X71, Olympus Scientific Solutions Americas, Waltham, Mass.) and Cellsens Dimension 1.11 (Olympus Corporation, Waltham, Mass.) software and monitored until the gap closed completely. […] The mean of each arm was determined for each day of the study until the wound heal and no gap existed. […]

C[C@@H]1O[C@@H](O[C@H]2[C@H](Oc3cc(O)c4c(c3)O[C@H](c3ccc(O)cc3)CC4=O)O[C@H](CO)[C@@H](O)[C@@H]2O)[C@H](O)[C@H](O)[C@H]1O [Naringin]
wound healing, % growth relative to d0 (in words): not significantly different from that of Zinc acetate
